# Test results as given in article PMC11303713, “Allosteric inhibition of CFTR gating by CFTRinh-172 binding in the pore” (Nature Communications, 2024).
# Several values for one entry are separate records, joined by “and”; a condition that tells them apart may be missing. Equal values may be shown once. Read-outs that look alike come from different tables or passages of the source.
# Key:
# Test in all cases: Inside-out patch-clamp inhibition of CFTR current by Inh-172
# Assay type in all cases: cell-based
# [1] = target: T1, human WT-CFTR (Homo sapiens, UniProt P13569); settings: for inhibition at 0.05 µM: 50 nM Inh-172; for inhibition at 0.1 µM: 100 nM Inh-172; for inhibition at 1 µM: 1000 nM Inh-172
# T1 construct: the native wild-type CFTR construct without any deletion or mutation; expressed in transfected cells; host or cells: CHO cells, pcDNA plasmid
# T1 sequence (P13569 whole entry): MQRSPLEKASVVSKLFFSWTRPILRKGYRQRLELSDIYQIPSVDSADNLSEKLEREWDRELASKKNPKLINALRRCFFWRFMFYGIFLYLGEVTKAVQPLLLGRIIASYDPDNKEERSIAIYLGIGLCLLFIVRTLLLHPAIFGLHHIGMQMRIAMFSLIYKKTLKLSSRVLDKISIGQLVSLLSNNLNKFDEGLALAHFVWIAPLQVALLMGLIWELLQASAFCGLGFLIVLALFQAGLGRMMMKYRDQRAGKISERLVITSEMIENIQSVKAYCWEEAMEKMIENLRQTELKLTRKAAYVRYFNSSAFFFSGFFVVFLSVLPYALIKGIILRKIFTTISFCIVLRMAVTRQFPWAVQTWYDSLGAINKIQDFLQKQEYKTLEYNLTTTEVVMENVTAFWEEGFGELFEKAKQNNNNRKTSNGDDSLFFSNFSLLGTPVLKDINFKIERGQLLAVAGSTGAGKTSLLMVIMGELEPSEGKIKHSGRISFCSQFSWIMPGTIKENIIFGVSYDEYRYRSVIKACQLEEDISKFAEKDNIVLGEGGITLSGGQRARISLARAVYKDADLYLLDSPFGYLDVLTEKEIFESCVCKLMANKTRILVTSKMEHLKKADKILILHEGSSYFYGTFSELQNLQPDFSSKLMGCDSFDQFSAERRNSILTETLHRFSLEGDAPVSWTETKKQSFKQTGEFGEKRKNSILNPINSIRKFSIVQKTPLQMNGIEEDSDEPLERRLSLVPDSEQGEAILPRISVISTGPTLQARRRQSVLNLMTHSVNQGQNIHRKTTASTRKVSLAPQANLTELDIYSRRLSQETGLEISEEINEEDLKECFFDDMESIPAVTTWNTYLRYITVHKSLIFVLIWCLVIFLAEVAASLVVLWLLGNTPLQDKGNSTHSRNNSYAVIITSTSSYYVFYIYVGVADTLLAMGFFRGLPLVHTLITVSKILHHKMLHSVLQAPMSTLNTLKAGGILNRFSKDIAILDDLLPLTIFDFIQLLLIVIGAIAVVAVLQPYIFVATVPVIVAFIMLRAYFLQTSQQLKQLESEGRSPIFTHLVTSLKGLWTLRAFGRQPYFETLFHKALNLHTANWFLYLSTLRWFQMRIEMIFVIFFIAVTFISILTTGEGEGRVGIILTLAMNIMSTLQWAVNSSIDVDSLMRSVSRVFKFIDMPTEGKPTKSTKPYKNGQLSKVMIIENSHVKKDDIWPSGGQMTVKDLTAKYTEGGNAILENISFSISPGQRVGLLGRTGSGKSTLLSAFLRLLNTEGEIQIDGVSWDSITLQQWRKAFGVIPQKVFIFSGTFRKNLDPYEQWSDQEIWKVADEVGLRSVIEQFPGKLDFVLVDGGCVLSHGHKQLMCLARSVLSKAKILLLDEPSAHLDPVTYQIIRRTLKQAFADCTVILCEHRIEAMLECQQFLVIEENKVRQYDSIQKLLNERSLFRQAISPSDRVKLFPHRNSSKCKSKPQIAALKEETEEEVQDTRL
# Description: (§1) CHO cells were grown at 37 °C in Dulbecco’s modified Eagle’s medium supplemented with 10% (vol/vol) fetal bovine serum (Sigma-Aldrich, St. Louis, MO). pcDNA plasmids carrying the desired CFTR construct were transfected to CHO cells using PolyFect transfection reagent (Qiagen, Hilden, Germany) together with green fluorescence protein (GFP) cDNA (pEGFP-C3, Takara Bio, Shiga, Japan) that helps identify expression of CFTR. Cells were first incubated with the transfection reagents at 37 °C for 6-12 hours on sterile glass chips in 35-mm tissue culture dishes before transferred to 27 °C for incubation for 2–7 days. Primers for mutations were ordered from Integrated DNA Technologies (Coralville, IA) and were summarized in Supplementary Data. All CFTR mutants were prepared with QuikChange XL kit (Agilent, Santa Clara, CA) and sequenced at the DNA Core facility at University of Missouri-Columbia.
# (§2) Patch-clamp pipettes were made from borosilicate capillary glass using a two-stage vertical puller (PP-81; Narishige, Amityville, NY). The pipette tips were fire polished with a homemade microforge to yield a pipette resistance of 2–5 MΩ when filled with a pipette solution containing (in mM): 140 NMDG-Cl (N-methyl-D-glucamine-chloride), 5 CaCl2, 2 MgCl2, and 10 HEPES, pH 7.4. For recordings, transfected cells on glass chips were transferred into a continuously perfused chamber on the stage of an inverted microscope (IX51; Olympus, Tokyo, Japan) with the perfusing solution containing (in mM): 150 NMDG-Cl, 2 MgCl2, 10 EGTA, 8 Tris, and 10 HEPES, pH 7.4. The membrane patch was excised to an inside-out configuration with a seal resistance >40 GΩ. CFTR currents were recorded with an amplifier (EPC9; HEKA, Holliston, MA), filtered through an eight-pole Bessel filter (LPF-8; Warner Instruments, Hamden, CT) at 100 Hz and digitized to a computer at a sampling rate of 500 Hz with Pulse software (version 8.53; HEKA). The membrane potential was held at −30 mV. Solution exchange was achieved by a fast solution change system (SF-77B; Warner Instruments). Inh-172 was obtained from the CFTR Chemical Compound Program supported by the Cystic Fibrosis Foundation. All experiments were performed at room temperature.
# (§3) The steady state mean currents were measured in the Igor Pro software (version 8.0; WaveMetrics). The mean baseline currents were subtracted from the steady state mean currents before the data were used to determine the degrees of inhibition. The degrees of inhibition by CFTR inhibitor 172 were calculated based on the equation:1 %inhibition=1−IInh−172/I0X100% where I0 and Iinh−172 represent uninhibited and inhibited currents, respectively. The IC50 and Hill coefficients were obtained by fitting percent inhibition as a function of [Inh-172] with the Hill equation:2 %inhibition=base+(max−base)/1+xhalf/x^rate where max and base represent the […] percent inhibition by Inh-172, x represents the concentration of Inh-172, and the rate is the Hill coefficient. The estimated IC50 (xhalf) and Hill coefficients are listed in Table 1 as mean ± standard deviation. Each patch-clamp recording was made from a separate cell.
# [2] = target: T2, T1142I-CFTR (Homo sapiens, UniProt P13569, T1142I); settings: for inhibition at 0.1 µM: 100 nM Inh-172; for inhibition at 0.5 µM: 500 nM Inh-172; for inhibition at 1 µM: 1000 nM Inh-172; for inhibition at 5 µM: 5000 nM Inh-172; for inhibition at 10 µM: 10000 nM Inh-172
# T2 construct: expressed in transfected cells; host or cells: CHO cells, pcDNA plasmid
# T2 sequence (P13569 whole entry T1142I): as the sequence (P13569 whole entry) above, with T1142I counted along it
# Description: as §1, §2, §3
# [3] = target: T3, p-hTMD2-p-CFTR (pig CFTR with human CFTR's TMD2) (Sus scrofa, UniProt Q6PQZ2, A1172T/A789T/A900R/A913S/C878S/C883W/D1186N/D1223E/D816E/DEL1175-1175/F1181T/G899S/G926T/H1036Q/I1057V/I806L/K1013Q/K886G/K887N/K898H/L1018V/L1029M/L930M/L932F/M795V/N1178T/P890L/Q1176K/Q1198S/R1179K/R831K/R951H/S1010A/S1184Y/S783N/S889P/T1129R/T790A/T843A/V1006I/V1222T/V1228I/V798A/V838M/V854I/V870I/V983I)
# T3 construct: expressed in transfected cells; host or cells: CHO cells, pcDNA plasmid
# T3 sequence (Q6PQZ2 with tags, fused parts or gaps with the stated changes): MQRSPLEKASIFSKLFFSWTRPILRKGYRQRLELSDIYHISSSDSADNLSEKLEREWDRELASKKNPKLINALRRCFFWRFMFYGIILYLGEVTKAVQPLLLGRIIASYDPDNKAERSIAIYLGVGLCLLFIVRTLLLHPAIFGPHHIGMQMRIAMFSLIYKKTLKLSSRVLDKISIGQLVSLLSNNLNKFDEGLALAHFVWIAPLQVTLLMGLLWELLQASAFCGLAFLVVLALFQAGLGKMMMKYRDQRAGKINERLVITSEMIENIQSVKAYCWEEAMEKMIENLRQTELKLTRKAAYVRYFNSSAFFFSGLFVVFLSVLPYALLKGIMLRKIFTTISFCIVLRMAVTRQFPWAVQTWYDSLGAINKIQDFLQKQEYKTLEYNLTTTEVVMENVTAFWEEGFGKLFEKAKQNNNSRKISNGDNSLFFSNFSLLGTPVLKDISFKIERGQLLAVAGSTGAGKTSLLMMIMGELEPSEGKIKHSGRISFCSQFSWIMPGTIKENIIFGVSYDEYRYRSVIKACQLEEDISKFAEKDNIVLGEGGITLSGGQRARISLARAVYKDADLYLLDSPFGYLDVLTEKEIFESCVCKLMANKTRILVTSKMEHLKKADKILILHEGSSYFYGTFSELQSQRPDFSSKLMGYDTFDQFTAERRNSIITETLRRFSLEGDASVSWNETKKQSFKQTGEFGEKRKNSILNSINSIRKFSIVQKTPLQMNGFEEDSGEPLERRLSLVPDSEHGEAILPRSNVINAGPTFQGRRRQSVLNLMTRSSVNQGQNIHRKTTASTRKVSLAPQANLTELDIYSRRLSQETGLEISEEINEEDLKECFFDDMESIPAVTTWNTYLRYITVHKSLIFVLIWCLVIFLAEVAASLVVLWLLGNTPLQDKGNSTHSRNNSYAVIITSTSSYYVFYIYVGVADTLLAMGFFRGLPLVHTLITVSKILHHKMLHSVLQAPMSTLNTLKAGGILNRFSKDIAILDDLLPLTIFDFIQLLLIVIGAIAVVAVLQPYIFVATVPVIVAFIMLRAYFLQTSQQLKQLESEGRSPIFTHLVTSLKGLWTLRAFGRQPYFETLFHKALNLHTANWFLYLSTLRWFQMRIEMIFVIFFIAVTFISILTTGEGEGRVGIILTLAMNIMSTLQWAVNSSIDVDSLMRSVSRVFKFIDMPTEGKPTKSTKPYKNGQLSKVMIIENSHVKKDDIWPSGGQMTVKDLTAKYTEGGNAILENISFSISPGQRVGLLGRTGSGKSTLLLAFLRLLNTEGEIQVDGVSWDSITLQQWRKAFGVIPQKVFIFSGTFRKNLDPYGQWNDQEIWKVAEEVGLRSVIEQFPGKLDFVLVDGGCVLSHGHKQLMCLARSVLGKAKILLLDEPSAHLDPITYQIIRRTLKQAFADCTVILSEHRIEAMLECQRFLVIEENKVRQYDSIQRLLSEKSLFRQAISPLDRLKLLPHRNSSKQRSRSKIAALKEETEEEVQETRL
# Description: as §1, §2, §3
# [4] = target: T4, p-hTM8-p-CFTR (pig CFTR, three TM8 amino acids replaced with human's) (Sus scrofa, UniProt Q6PQZ2, G926T/L930M/L932F)
# T4 construct: expressed in transfected cells; host or cells: CHO cells, pcDNA plasmid
# T4 sequence (Q6PQZ2 whole entry G926T/L930M/L932F): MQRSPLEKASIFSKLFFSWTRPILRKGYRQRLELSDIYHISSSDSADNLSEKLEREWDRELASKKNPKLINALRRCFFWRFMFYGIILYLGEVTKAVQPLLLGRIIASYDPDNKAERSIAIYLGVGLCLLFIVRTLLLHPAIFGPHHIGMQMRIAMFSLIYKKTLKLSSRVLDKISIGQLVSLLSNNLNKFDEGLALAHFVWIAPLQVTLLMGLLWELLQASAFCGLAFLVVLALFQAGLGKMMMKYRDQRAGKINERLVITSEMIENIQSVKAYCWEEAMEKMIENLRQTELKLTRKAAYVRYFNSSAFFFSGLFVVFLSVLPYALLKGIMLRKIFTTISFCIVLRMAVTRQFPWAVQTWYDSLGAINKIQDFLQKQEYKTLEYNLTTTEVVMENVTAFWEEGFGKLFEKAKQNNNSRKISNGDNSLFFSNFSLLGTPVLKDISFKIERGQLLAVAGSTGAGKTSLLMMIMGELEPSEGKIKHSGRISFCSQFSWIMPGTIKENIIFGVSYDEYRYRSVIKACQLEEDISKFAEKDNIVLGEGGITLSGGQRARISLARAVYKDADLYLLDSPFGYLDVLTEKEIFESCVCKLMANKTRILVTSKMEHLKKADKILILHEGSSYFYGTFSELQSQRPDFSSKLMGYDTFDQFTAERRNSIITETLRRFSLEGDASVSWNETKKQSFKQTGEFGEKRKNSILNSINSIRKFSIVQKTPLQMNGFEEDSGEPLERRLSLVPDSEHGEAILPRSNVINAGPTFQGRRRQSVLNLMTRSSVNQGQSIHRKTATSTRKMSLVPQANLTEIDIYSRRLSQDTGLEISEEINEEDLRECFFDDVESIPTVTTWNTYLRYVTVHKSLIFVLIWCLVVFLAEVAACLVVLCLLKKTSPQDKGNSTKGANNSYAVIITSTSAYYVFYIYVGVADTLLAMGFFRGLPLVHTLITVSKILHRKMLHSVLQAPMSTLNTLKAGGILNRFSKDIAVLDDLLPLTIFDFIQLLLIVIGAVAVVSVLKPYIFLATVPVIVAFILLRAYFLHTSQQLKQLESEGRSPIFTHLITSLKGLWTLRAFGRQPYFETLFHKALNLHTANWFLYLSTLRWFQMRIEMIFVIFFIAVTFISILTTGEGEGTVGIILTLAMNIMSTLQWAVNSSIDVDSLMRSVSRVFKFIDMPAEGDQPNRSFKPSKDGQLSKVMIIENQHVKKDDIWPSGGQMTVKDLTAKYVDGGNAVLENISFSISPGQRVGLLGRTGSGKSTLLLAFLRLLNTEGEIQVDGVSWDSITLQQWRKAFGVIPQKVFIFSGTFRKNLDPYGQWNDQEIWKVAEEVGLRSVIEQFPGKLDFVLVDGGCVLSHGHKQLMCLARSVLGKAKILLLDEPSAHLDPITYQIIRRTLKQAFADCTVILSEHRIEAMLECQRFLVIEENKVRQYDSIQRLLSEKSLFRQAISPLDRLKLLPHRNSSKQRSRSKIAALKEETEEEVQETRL
# Description: as §1, §2, §3
# [5] = 25 nM Inh-172, read-out: percent inhibition of current, Mean
# [6] = read-out: percent inhibition of current, Mean
# [7] = read-out: percent inhibition of current, individual cell
# [8] = 500 nM Inh-172, read-out: percent inhibition of current, Mean
# [9] = 500 nM Inh-172, read-out: percent inhibition of current, individual cell
# [10] = 10000 nM Inh-172, read-out: percent inhibition of current, individual cell
# [11] = 100 nM Inh-172, read-out: percent inhibition of current, Mean
# [12] = 100 nM Inh-172, read-out: percent inhibition of current, individual cell
# [13] = 1000 nM Inh-172, read-out: percent inhibition of current, Mean
# [14] = 1000 nM Inh-172, read-out: percent inhibition of current, individual cell
# [15] = 10000 nM Inh-172, read-out: percent inhibition of current, Mean
smiles,measurement,setting,value
"O=C(O)c1ccc(/C=C2\SC(=S)N(c3cccc(C(F)(F)F)c3)C2=O)cc1 [Inh-172, CFTRinh-172]",inhibition at 0.025 µM,[1]; [5],27.2%
same,inhibition at 0.05 µM,[1]; [6],33.5%
same,inhibition at 0.05 µM,[1]; [7],28%
same,inhibition at 0.1 µM,[1]; [6],60.2%
same,inhibition at 0.1 µM,[1]; [7],53%
same,inhibition at 0.5 µM,"[1]; 0.5 µM Inh-172, read-out: WT-CFTR current inhibited",80%
same,inhibition at 0.5 µM,[1]; [8],81%
same,inhibition at 0.5 µM,[1]; [9],75%
same,inhibition at 1 µM,[1]; [6],91.4%
same,inhibition at 1 µM,[1]; [7],88%
same,inhibition at 10 µM,[1]; [10],89%
same,Hill Coefficient,[1]; Human WT,0.88 ± 0.09
same,Hill Coefficient,[1]; Human WT + 200 nM VX-770,1.07 ± 0.10
same,IC50,[1]; Human WT + 200 nM VX-770,0.25 ± 0.02 µM
same,Hill Coefficient,[1]; Human WT + 1 µM VX-770,0.98 ± 0.02
same,IC50,[1]; Human WT + 1 µM VX-770,0.42 ± 0.01 µM
same,IC50,"[1]; Human WT, inside-out patch, -30 mV, 2 mM ATP, Hill fit",0.08 ± 0.01 µM
same,IC50,"[1]; human CFTR, value of earlier manuscript version quoted in peer review file",0.083 µM
same,inhibition at 0.1 µM,[2]; [6],7.2%
same,inhibition at 0.1 µM,[2]; [7],5%
same,inhibition at 0.5 µM,[2]; [6],22.5%
same,inhibition at 0.5 µM,[2]; [7],22%
same,inhibition at 1 µM,[2]; [6],39.3%
same,inhibition at 1 µM,[2]; [7],38%
same,inhibition at 5 µM,[2]; [6],78.3%
same,inhibition at 5 µM,[2]; [7],78%
same,inhibition at 10 µM,[2]; [6],90.7%
same,inhibition at 10 µM,[2]; [7],90%
same,Hill Coefficient,[2]; T1142I,1.12 ± 0.05
same,IC50,[2]; T1142I,1.49 ± 0.07 µM
same,"percent inhibition of current, individual cell",[3]; 50 nM Inh-172,48.0 and 39.0
same,inhibition at 0.05 µM,"[3]; 50 nM Inh-172, read-out: percent inhibition of current, Mean",46.3%
same,inhibition at 0.05 µM,"[3]; 50 nM Inh-172, read-out: percent inhibition of current, individual cell",52%
same,"percent inhibition of current, individual cell",[3]; 100 nM Inh-172,60.0 and 64.0 and 67.0 and 62.0 and 55.0
same,inhibition at 0.1 µM,[3]; [11],63.6%
same,inhibition at 0.1 µM,[3]; [12],75%
same,"percent inhibition of current, individual cell",[3]; 500 nM Inh-172,71.0 and 78.0 and 69.0 and 61.0
same,inhibition at 0.5 µM,[3]; [8],72%
same,inhibition at 0.5 µM,[3]; [9],81%
same,"percent inhibition of current, individual cell",[3]; 1000 nM Inh-172,84.0
same,inhibition at 1 µM,[3]; [13],79.8%
same,inhibition at 1 µM,[3]; [14],85%
same,"percent inhibition of current, individual cell",[3]; 5000 nM Inh-172,97.0 and 95.0
same,inhibition at 5 µM,"[3]; 5000 nM Inh-172, read-out: percent inhibition of current, Mean",96%
same,inhibition at 5 µM,"[3]; 5000 nM Inh-172, read-out: percent inhibition of current, individual cell",96%
same,"percent inhibition of current, individual cell",[3]; 10000 nM Inh-172,98.0 and 100.0 and 90.0 and 93.0 and 91.0
same,inhibition at 10 µM,[3]; [15],95.6%
same,inhibition at 10 µM,[3]; [10],99%
same,Hill Coefficient,[3]; p-hTMD2-p,0.54 ± 0.08
same,IC50,[3]; p-hTMD2-p,0.06 ± 0.02 µM
same,IC50,"[3]; pig CFTR with human TMD2, earlier manuscript version, peer review file",0.055 µM
same,"percent inhibition of current, individual cell",[4]; 25 nM Inh-172,0 and 3
same,inhibition at 0.025 µM,[4]; [5],1%
same,"percent inhibition of current, individual cell",[4]; 100 nM Inh-172,18 and 20 and 14 and 17
same,inhibition at 0.1 µM,[4]; [11],16.4%
same,inhibition at 0.1 µM,[4]; [12],13%
same,"percent inhibition of current, individual cell",[4]; 500 nM Inh-172,63 and 60 and 56 and 33 and 23
same,inhibition at 0.5 µM,[4]; [8],47%
same,"percent inhibition of current, individual cell",[4]; 1000 nM Inh-172,53 and 44 and 63
same,inhibition at 1 µM,[4]; [13],54%
same,inhibition at 1 µM,[4]; [14],57%
same,"percent inhibition of current, individual cell",[4]; 10000 nM Inh-172,82 and 85
same,inhibition at 10 µM,[4]; [15],89%
same,inhibition at 10 µM,[4]; [10],100%
same,Hill Coefficient,[4]; p-hTM8-p,0.84 ± 0.10
same,IC50,[4]; p-hTM8-p,0.72 ± 0.09 µM
